Test system: Candida albicans FP-633
Format: cell-based
Conditions: FP-633, 24 h, pH 7.3
Description: In vitro antimicrobial activity of the object compound of Examples 1, 2, 3 and 4 disclosed later was determined by MICS in mouse serum as described below. The MICS in mouse serum were determined by the microdilution method using ICR mouse serum buffered with 20 mM HEPES buffer (pH 7.3) as a test medium. Inoculum suspension of 10^6 cells/ml were prepared by a hemocytometric procedure and diluted to obtain an inoculum size of approximately 1.0×10^3 cells/ml. Microplates were incubated at 37° C. for 24 hours in 5% CO2. The MICS were defined as the lowest concentrations at which no visible growth was observed.

Row | SMILES | MIC [µg/mL]
1 | COc1cc(C[C@@H](O)[C@@H]2NC(=O)[C@@H]3C[C@@H](O)CN3C(=O)[C@H]([C@@H](C)O)NC(=O)[C@@H](NCc3ccc(-c4nnc(-c5ccc(N6CCN([C@H]7CC[C@@H](C)CC7)CC6)cc5)s4)cc3)C[C@@H](O)CNC(=O)[C@@H]3[C@@H](O)[C@@H](C)CN3C(=O)[C@H]([C@H](O)CCN)NC2=O)ccc1O [Example 1] | <0.15
2 | COc1cc(C[C@@H](O)[C@@H]2NC(=O)[C@@H]3C[C@@H](O)CN3C(=O)[C@H]([C@@H](C)O)NC(=O)[C@@H](NCc3ccc(-c4ccc(N5CCN([C@H]6CC[C@](OC)(C7CCCCC7)CC6)CC5)cc4)cc3)C[C@@H](O)CNC(=O)[C@@H]3[C@@H](O)[C@@H](C)CN3C(=O)[C@H]([C@H](O)CCN)NC2=O)ccc1O [Example 2] | <0.15
3 | COc1cc(C[C@@H](O)[C@@H]2NC(=O)[C@@H]3C[C@@H](O)CN3C(=O)[C@H]([C@@H](C)O)NC(=O)[C@@H](NCc3ccc(-c4nnc(-c5ccc(N6CCC(OC)(C7CCCCC7)CC6)cc5)s4)cc3)C[C@@H](O)CNC(=O)[C@@H]3[C@@H](O)[C@@H](C)CN3C(=O)[C@H]([C@H](O)CCNC(CO)CO)NC2=O)ccc1O [Example 3] | <0.15
4 | COc1cc(C[C@@H](O)[C@@H]2NC(=O)[C@@H]3C[C@@H](O)CN3C(=O)[C@H]([C@@H](C)O)NC(=O)[C@@H](NCc3ccc(-c4nnc(-c5ccc(N6CCN(C7CCCCC7)CC6)cc5)s4)cc3)C[C@@H](O)CNC(=O)[C@@H]3[C@@H](O)[C@@H](C)CN3C(=O)[C@H]([C@H](O)CCNC(CO)CO)NC2=O)ccc1O [Example 4] | <0.15
